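Following 48 hours of exposure in 96-well plates, responses at five concentrations were used to interpolate endpoints linearly. GI50 marks 50% less growth. TGI is the concentration that stops growth completely.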 Residues, ends and D or L forms follow the SMILES beside them. *: point of attachment. Boc = CC(C)(C)OC(=O)*; OBn = c1ccc(CO*)cc1
Tests used:
Test in all cases: inhibition of tumour cell growth, NCI panel, 48 h
SK-MEL-2 melanoma = tested on: SK-MEL-2 melanoma
MOLT-4 leukemia = tested on: MOLT-4 leukemia
NCI-H522 lung = tested on: NCI-H522 lung
A498 renal = tested on: A498 renal
CCRF-CEM leukemia = tested on: CCRF-CEM leukemia
HT29 colon = tested on: HT29 colon
LOX IMVI melanoma = tested on: LOX IMVI melanoma
HOP-92 NSCLC = tested on: HOP-92 NSCLC
UO-31 renal = tested on: UO-31 renal
NCI-H226 lung = tested on: NCI-H226 lung

Row | Compound | TGI (SK-MEL-2 melanoma) [µM] | TGI (MOLT-4 leukemia) [µM] | TGI (NCI-H522 lung) [µM] | TGI (A498 renal) [µM] | TGI (CCRF-CEM leukemia) [µM] | TGI (HT29 colon) [µM] | TGI (LOX IMVI melanoma) [µM] | TGI (HOP-92 NSCLC) [µM] | TGI (UO-31 renal) [µM] | TGI (NCI-H226 lung) [µM] | GI50 (NCI-H226 lung) [µM] | GI50 (NCI-H522 lung) [µM] | GI50 (A498 renal) [µM] | GI50 (HOP-92 NSCLC) [µM] | GI50 (UO-31 renal) [µM]
1 | NC(=O)N/N=C(/Cc1nc2ccc(C(=O)c3ccccc3)cc2[nH]c1=O)C(=O)Nc1ccc(C(F)(F)F)cc1[N+](=O)[O-] | > 100 | > 100 | 76.3 | > 100 | > 100 | > 100 | > 100 | > 100 | > 100 |  |  |  |  |  | 
2 | CC(=O)c1cccc(NC(=O)C(=O)C(c2cnc3ccc([N+](=O)[O-])cc3n2)[N+](=O)[O-])c1 (configuration not stated) | > 100 | > 100 |  | > 100 | > 100 | > 100 | > 100 | > 100 | > 100 | > 100 |  |  |  |  | 
3 | Oc1ccccc1C1=NOC(c2ccc(C(F)(F)F)cc2)C1 (configuration not stated) | > 50 | > 50 | > 50 | > 50 | > 50 | > 50 | > 50 |  | > 50 | > 50 |  |  |  |  | 
4 | CC(C)(C)OC(=O)C1=C2C=C(O)C=CC2(C)N(Cc2ccccc2)C1=N (configuration not stated) | 33.1 | > 32.7 | 4 | 26.2 | > 38.2 | 14 | 8.44 | 5.91 | 10.7 | 28.6 |  |  |  |  | 
5 | O=c1[nH]nc(Cn2c3ccc(Br)cc3c3nc4ccccc4nc32)n1C1CCCCC1 | > 100 | > 100 |  | 57.4 |  | > 100 | > 100 | 63.3 | > 100 | > 100 |  |  |  |  | 
6 | O=c1c2cc(I)ccc2nc(SCc2n[nH]c(=S)o2)n1Cc1ccccc1 | 30.4 | 65.3 | 27.8 | 34.2 | 43.8 | 66.2 | 29.1 | 27.9 | 3.43 | 27.6 |  |  |  |  | 
7 | CC(C)CC(NC(=O)OC(C)(C)C)C(=O)N1CCCC1C(=O)OCc1ccccc1 (stereo not drawn) (Boc-Leu-Pro-OBn; configuration not given here) | > 100 |  | > 100 | > 100 |  | > 100 | > 100 | > 100 | > 100 | > 100 |  |  |  |  | 
8 | O=C(Nc1cc(Cl)cc(Cl)c1)/C(Cc1nc2ccccc2[nH]c1=O)=N/NC(=O)c1ccncc1 | > 100 | > 100 |  | > 100 | > 100 |  | > 100 | > 100 | > 100 |  |  |  |  |  | 
9 | O=C1c2ccccc2CC12Cc1ccccc1C2 | > 100 | > 100 | > 100 | > 100 | > 100 | 70.5 | > 100 | 91.9 | > 100 | > 100 |  |  |  |  | 
10 | N=C(N)c1ccc(-c2ccc(-c3cccs3)s2)s1 |  |  | 3.02 | 0.846 |  |  |  | 2.6 | 2.1 | 52.4 | 6.89 | 1.49 | 0.279 | 1.06 | 0.318
11 | Cc1nn2c(C(=O)N/N=C/c3ccc([N+](=O)[O-])cc3)c(C)nc2s1 |  | > 100 | > 100 | > 100 | > 100 | > 100 | > 100 | > 100 | > 100 | > 100 |  |  |  |  | 
12 | O=c1oc2ccc(Cl)cc2cc1-c1cn2ccccc2n1 | > 100 | > 100 | > 100 |  | > 100 | > 50.6 | > 100 | > 73.3 | 19.2 | > 94.8 |  |  |  |  | 
13 | NCCCCC(=O)c1cccnc1 | > 100 | > 100 | > 100 | > 100 | > 100 | > 100 | > 100 | > 100 | > 100 |  |  |  |  |  | 
14 | CN(C)CCn1c(=O)c2ccc3c4c(nn3CCN(C)C)c3cc([N+](=O)[O-])ccc3n(c1=O)c24 | 0.31 |  | 0.2 | 1.68 | 0.417 |  | 1.16 |  | 0.363 | 2.35 |  |  |  |  | 
15 | CCN(CC)c1ccc2cc(-c3nnc(-c4ccccc4O)o3)c(=O)oc2c1 | 30.2 | 25.9 | 25.5 | 29.6 | 8.63 | 26.3 | 20.1 |  | 22.7 |  |  |  |  |  | 
16 | Clc1ccc(-c2ccc(-c3nnc(COc4ccc(OCc5nnc(-c6ccc(-c7ccc(Cl)cc7Cl)o6)o5)c(Cl)c4)o3)o2)c(Cl)c1 | > 100 | 64.2 | > 100 | > 100 | 67.1 | > 100 | > 100 |  | > 100 | > 100 |  |  |  |  | 
17 | Cc1ccc(N2CCN(CCC(=O)O)CC2)cc1 | > 100 |  | > 100 | > 100 | > 100 | > 100 | > 100 | > 100 | > 100 | > 100 |  |  |  |  | 
18 | Cc1cc(=O)[nH]c(NNC(C#N)c2c(O)ccc3ccccc23)n1 (configuration not stated) | 27.8 | 48.6 | 23.7 |  | > 100 | 88.4 | 22.4 | 79.6 | 9.92 | 17.6 |  |  |  |  | 
19 | Nc1nc2ccc(OCC(O)CN3CCCCC3)cc2[n+]([O-])n1 (configuration not stated) | > 100 | > 100 | > 100 | > 100 | > 100 | > 100 |  | > 100 | > 100 | > 100 |  |  |  |  | 
20 | C=C(C)C(O)C(O)C[C@@H](C)C1CC[C@]23C[C@]12CCC1[C@@]2(C)CCC(OC(C)=O)C(C)(C)C2CC(OC2OC(CO)C(O)C(O)C2O)[C@]13C (some centres not stated) | 30.6 | 38.3 | 30.7 |  | 31.2 | 33.6 | 32.3 | 25.7 | > 100 | 39.9 |  |  |  |  | 
21 | NC(=O)/C=c1/c2ccccc2n2nc3ccccc3c12 | 57.1 | 7.69 | 33.2 | 79.4 | > 100 | 29.8 | 19.7 |  | 77 |  |  |  |  |  | 
22 | O=[N+]([O-])/C(C(Cl)=C(Cl)Cl)=C(\Nc1ccccc1)n1nnc2ccccc21 | 75.2 | > 100 |  | > 100 | 65.9 | > 100 | 31.2 |  | 48.9 | > 100 |  |  |  |  | 
23 | O=C(CCCl)NNC1=NCCCCN1 | > 100 | > 100 | > 100 |  | > 100 | > 100 | > 100 | > 100 | > 100 | > 100 |  |  |  |  | 
